pIC50: −log10 of the molar value.
Biological target: CDK7/CycH/MNAT1 (Homo sapiens (Human), UniProt P50613)
Assay: Biochemical Assay for CDK7 (TR-FRET kinase assay)
Details: 60 min pre-incubation with kinase, 1 mM ATP; for inhibition at 10 µM: 10 μM compound
Experimental: Biochemical Assay for CDK7:
The ability of compounds to inhibit CDK7 kinase activity was tested in a TR-FRET assay using 5 nM of CDK7/CycH/MNAT1 obtained from Invitrogen, USA. Test compounds were pre-incubated with the kinase at room temperature for 60 min. After the incubation, substrate mix [100 nM Ultra-light MBP (Perkin Elmer, USA) and 1 mM ATP (Sigma)] was added. The above reaction was stopped by the addition of 40 mM EDTA after 60 minutes of kinase reaction. 1 nM Eu-labelled antiphospho-MBP antibody [Perkin Elmer, USA] was added, mixed well and the fluorescence emission at 615 nm and 665 nm [excitation at 340 nm] was measured. The final DMSO concentration in the assay was 1%. For IC50 determination, appropriate concentrations were made by ⅓^rd serial dilutions of 10 mM DMSO stock solution of test compound. All the fluorescence measurements were made in a Victor 3 Multilabel Counter [Perkin Elmer, USA]. The IC50 was determined by fitting the dose response data to sigmoidal curve fitting equation using GraphPad Prism software V5. To identify compounds that inhibit CDK7 irreversibly, time depended inhibition studies were carried by pre-incubating compound with the enzyme at three time points (20, 60 and 180 min) and carrying out assay as described above.
The compounds were screened by the above mentioned assay procedure.

CDK7/CycH/MNAT1, sequence (P50613 whole entry): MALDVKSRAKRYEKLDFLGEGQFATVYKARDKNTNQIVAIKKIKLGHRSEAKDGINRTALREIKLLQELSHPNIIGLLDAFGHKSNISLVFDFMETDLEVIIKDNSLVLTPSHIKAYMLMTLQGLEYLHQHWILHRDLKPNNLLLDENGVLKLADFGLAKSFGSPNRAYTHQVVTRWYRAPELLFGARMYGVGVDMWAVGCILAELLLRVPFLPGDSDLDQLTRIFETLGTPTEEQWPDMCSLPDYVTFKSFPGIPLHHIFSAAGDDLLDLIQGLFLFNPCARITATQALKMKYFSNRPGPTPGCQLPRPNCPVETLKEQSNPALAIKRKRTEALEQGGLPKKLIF
CDK7/CycH/MNAT1, sequence (P51946 whole entry partner): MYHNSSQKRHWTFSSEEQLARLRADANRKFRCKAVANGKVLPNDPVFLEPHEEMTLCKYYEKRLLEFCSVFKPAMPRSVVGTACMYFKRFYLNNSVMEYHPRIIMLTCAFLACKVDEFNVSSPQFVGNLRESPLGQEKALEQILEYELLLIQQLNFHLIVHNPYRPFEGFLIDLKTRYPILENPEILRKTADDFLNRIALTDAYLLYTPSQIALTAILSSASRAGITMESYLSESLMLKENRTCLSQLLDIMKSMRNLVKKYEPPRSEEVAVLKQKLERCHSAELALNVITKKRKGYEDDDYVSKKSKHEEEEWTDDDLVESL
CDK7/CycH/MNAT1, sequence (P51948 whole entry partner): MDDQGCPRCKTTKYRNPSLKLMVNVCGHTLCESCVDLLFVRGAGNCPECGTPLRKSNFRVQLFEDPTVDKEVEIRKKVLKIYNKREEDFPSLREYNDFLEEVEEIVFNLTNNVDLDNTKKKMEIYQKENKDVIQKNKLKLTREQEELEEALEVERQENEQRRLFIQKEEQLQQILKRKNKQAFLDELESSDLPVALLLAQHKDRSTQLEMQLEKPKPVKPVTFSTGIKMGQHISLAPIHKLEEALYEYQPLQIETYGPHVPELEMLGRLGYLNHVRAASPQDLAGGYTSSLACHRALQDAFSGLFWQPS

inhibition at 10 µM [%]	pIC50	SMILES
95	< 7.00	C=CC(=O)Nc1ccc(-c2cccc(C(C)C(=O)Nc3cc(C4CC4)[nH]n3)c2)cc1 (stereo not shown) [Compound 18, N-(3′-(1-((5-cyclopropyl-1H-pyrazol-3-yl)amino)-1-oxopropan-2-yl)-[1,1′-biphenyl]-4-yl)acrylamide]
97	7.00 to 7.60	C=CC(=O)Nc1ccc(-c2cccc(C(C)C(=O)Nc3cc(C4CC4)[nH]n3)c2)cc1F (stereo not shown) [Compound 19, N-(3′-(1-((5-cyclopropyl-1H-pyrazol-3-yl)amino)-1-oxopropan-2-yl)-3-fluoro-[1,1′-biphenyl]-4-yl)acrylamide]
100	> 7.60	C=CC(=O)Nc1ccc(-c2cccc(C(C)C(=O)Nc3cc(C4CC4)[nH]n3)c2)cn1 (stereo not shown) [Compound 20, N-(5-(3-(1-((5-cyclopropyl-1H-pyrazol-3-yl)amino)-1-oxopropan-2-yl)phenyl)pyridin-2-yl)acrylamide]
98	7.00 to 7.60	C=CC(=O)Nc1ccc(-c2cc(C(C)C(=O)Nc3cc(C4CC4)[nH]n3)ccc2F)cc1F (stereo not shown) [Compound 23, N-(5′-(1-((5-cyclopropyl-1H-pyrazol-3-yl)amino)-1-oxopropan-2-yl)-2′,3-difluoro-[1,1′-biphenyl]-4-yl)acrylamide]
96	7.00 to 7.60	C=CC(=O)Nc1ccc(-c2cccc(C(C)C(=O)Nc3cc(C4CC4)[nH]n3)c2)nc1 (stereo not shown) [Compound 24, N-(6-(3-(1-((5-cyclopropyl-1H-pyrazol-3-yl)amino)-1-oxopropan-2-yl)phenyl)pyridin-3-yl)acrylamide]
97	7.00 to 7.60	C=CC(=O)Nc1ccc(-c2cccc(C(C(=O)Nc3cc(C4CC4)[nH]n3)C(C)C)c2)cc1F (stereo not shown) [Compound 25, 2-(4′-acrylamido-3′-fluoro-[1,1′-biphenyl]-3-yl)-N-(5-cyclopropyl-1H-pyrazol-3-yl)-3-methylbutanamide]
96	> 7.60	C=CC(=O)Nc1ccc(-c2cccc(C(CC)C(=O)Nc3cc(C4CC4)[nH]n3)c2)nc1 (stereo not shown) [Compound 26, 2-(3-(5-acrylamidopyridin-2-yl)phenyl)-N-(5-cyclopropyl-1H-pyrazol-3-yl)butanamide]
98	> 7.60	C=CC(=O)Nc1ccc(-c2cccc(C(CC)C(=O)Nc3cc(C4CC4)[nH]n3)c2)cc1F (stereo not shown) [Compound 27, 2-(4′-acrylamido-3′-fluoro-[1,1′-biphenyl]-3-yl)-N-(5-cyclopropyl-1H-pyrazol-3-yl)butanamide]
96	7.00 to 7.60	CC(C(=O)Nc1cc(C2CCCC2)[nH]n1)c1cccc(-c2ccc(NC(=O)/C=C/CN(C)C)c(F)c2)c1 (stereo not shown) [Compound 28, (E)-N-(3′-(1-((5-cyclopentyl-1H-pyrazol-3-yl)amino)-1-oxopropan-2-yl)-3-fluoro-[1,1′-biphenyl]-4-yl)-4-(dimethylamino)but-2-enamide]
97	> 7.60	CC(C(=O)Nc1cc(C2CC2)[nH]n1)c1cccc(-c2ccc3c(c2)CCN3C(=O)/C=C/CN(C)C)c1 (stereo not shown) [Compound 29, (E)-N-(5-cyclopropyl-1H-pyrazol-3-yl)-2-(3-(1-(4-(dimethylamino)but-2-enoyl)indolin-5-yl)phenyl)propanamide]
28	< 7.00	C=CC(=O)Nc1ccc(-c2cccc(C(C)C(=O)Nc3n[nH]c(C4CC4)c3C)c2)cc1 (stereo not shown) [Compound 30, N-(3′-(1-((5-cyclopropyl-4-methyl-1H-pyrazol-3-yl)amino)-1-oxopropan-2-yl)-[1,1′-biphenyl]-4-yl)acrylamide]
100	> 7.60	CCC(C(=O)Nc1cc(C2CC2)[nH]n1)c1cccc(-c2ccc(NC(=O)/C=C/CN(C)C)c(F)c2)c1 (stereo not shown) [Compound 31, (E)-N-(3′-(1-((5-cyclopropyl-1H-pyrazol-3-yl)amino)-1-oxobutan-2-yl)-3-fluoro-[1,1′-biphenyl]-4-yl)-4-(dimethylamino)but-2-enamide]
100	> 7.60	CCN(CC)C/C=C/C(=O)Nc1ccc(-c2cccc(C(C)C(=O)Nc3cc(C4CC4)[nH]n3)c2)cc1F (stereo not shown) [Compound 32, (E)-N-(3′-(1-((5-cyclopropyl-1H-pyrazol-3-yl)amino)-1-oxopropan-2-yl)-3-fluoro-[1,1′-biphenyl]-4-yl)-4-(diethylamino)but-2-enamide]
97	7.00 to 7.60	CC(C(=O)Nc1cc(C2CC2)[nH]n1)c1cccc(-c2ccc(NC(=O)/C=C/CN3CCCC3)c(F)c2)c1 (stereo not shown) [Compound 33, (E)-N-(3′-(1-((5-cyclopropyl-1H-pyrazol-3-yl)amino)-1-oxopropan-2-yl)-3-fluoro-[1,1′-biphenyl]-4-yl)-4-(pyrrolidin-1-yl)but-2-enamide]
88	< 7.00	CC(C(=O)Nc1cc(C2CC2)[nH]n1)c1cccc(-c2ccc(NC(=O)/C=C/CN3CCOCC3)c(F)c2)c1 (stereo not shown) [Compound 34, (E)-N-(3′-(1-((5-cyclopropyl-1H-pyrazol-3-yl)amino)-1-oxopropan-2-yl)-3-fluoro-[1,1′-biphenyl]-4-yl)-4-morpholinobut-2-enamide]
86	< 7.00	CC(C(=O)Nc1cc(C2CC2)[nH]n1)c1cccc(-c2ccc(NC(=O)/C=C/CN3CCOCC3)cn2)c1 (stereo not shown) [Compound 35, (E)-N-(6-(3-(1-((5-cyclopropyl-1H-pyrazol-3-yl)amino)-1-oxopropan-2-yl)phenyl)pyridin-3-yl)-4-morpholinobut-2-enamide]
98	> 7.60	CC(C)C(C(=O)Nc1cc(C2CC2)[nH]n1)c1cccc(-c2ccc(NC(=O)/C=C/CN(C)C)cn2)c1 (stereo not shown) [Compound 36, (E)-N-(6-(3-(1-((5-cyclopropyl-1H-pyrazol-3-yl)amino)-3-methyl-1-oxobutan-2-yl)phenyl)pyridin-3-yl)-4-(dimethylamino)but-2-enamide]
67	< 7.00	CC(C(=O)Nc1cc(C2CC2)[nH]n1)c1cccc(-c2ccc(NC/C=C/C(=O)N(C)C)cn2)c1 (stereo not shown) [Compound 37, (E)-4-((6-(3-(1-((5-cyclopropyl-1H-pyrazol-3-yl)amino)-1-oxopropan-2-yl)phenyl)pyridin-3-yl)amino)-N,N-dimethylbut-2-enamide]
94	< 7.00	CC(C(=O)Nc1cc(C2CC2)[nH]n1)c1cccc(-c2ccc(NC(=O)/C=C/CN(C)C)c(F)n2)c1 (stereo not shown) [Compound 38, (E)-N-(6-(3-(1-((5-cyclopropyl-1H-pyrazol-3-yl)amino)-1-oxopropan-2-yl)phenyl)-2-fluoropyridin-3-yl)-4-(dimethylamino)but-2-enamide]
84	< 7.00	CC(C(=O)Nc1cc(C2CC2)[nH]n1)c1cccc(-c2ccc(NC(=O)/C=C/CN3CCCCC3)cn2)c1 (stereo not shown) [Compound 39, (E)-N-(6-(3-(1-((5-cyclopropyl-1H-pyrazol-3-yl)amino)-1-oxopropan-2-yl)phenyl)pyridin-3-yl)-4-(piperidin-1-yl)but-2-enamide]
100	> 7.60	CC(C(=O)Nc1cc(C2CC2)[nH]n1)c1cccc(-c2ccc(NC(=O)/C=C/CN3CCCCC3)nc2)c1 (stereo not shown) [Compound 40, (E)-N-(5-(3-(1-((5-cyclopropyl-1H-pyrazol-3-yl)amino)-1-oxopropan-2-yl)phenyl)pyridin-2-yl)-4-(piperidin-1-yl)but-2-enamide]
90	< 7.00	COC/C=C/C(=O)Nc1ccc(-c2cccc(C(C)C(=O)Nc3cc(C4CC4)[nH]n3)c2)cn1 (stereo not shown) [Compound 41, (E)-N-(5-(3-(1-((5-cyclopropyl-1H-pyrazol-3-yl)amino)-1-oxopropan-2-yl)phenyl)pyridin-2-yl)-4-methoxybut-2-enamide]
98	> 7.60	CC(C(=O)Nc1cc(C2CC2)[nH]n1)c1cccc(-c2ccc(NC(=O)/C=C/CN(C)C)nc2)c1 (stereo not shown) [Compound 42, (E)-N-(5-(3-(1-((5-cyclopropyl-1H-pyrazol-3-yl)amino)-1-oxopropan-2-yl)phenyl)pyridin-2-yl)-4-(dimethylamino)but-2-enamide]
99	> 7.60	CC(C)C(C(=O)Nc1cc(C2CC2)[nH]n1)c1cccc(-c2ccc(NC(=O)/C=C/CN(C)C)c(F)c2)c1 (stereo not shown) [Compound 43, (E)-N-(3′-(1-((5-cyclopropyl-1H-pyrazol-3-yl)amino)-3-methyl-1-oxobutan-2-yl)-3-fluoro-[1,1′-biphenyl]-4-yl)-4-(dimethylamino)but-2-enamide]
99	> 7.60	CC(C)C(C(=O)Nc1cc(C2CC2)[nH]n1)c1cccc(-c2ccc(NC(=O)/C=C/CN3CCOCC3)nc2)c1 (stereo not shown) [Compound 44, (E)-N-(5-(3-(1-((5-cyclopropyl-1H-pyrazol-3-yl)amino)-3-methyl-1-oxobutan-2-yl)phenyl)pyridin-2-yl)-4-morpholinobut-2-enamide]
89	> 7.60	CC(C(=O)Nc1cc(C2CC2)[nH]n1)c1cccc(-c2ccc(NC(=O)/C=C/CN3CCC(F)C3)nc2)c1 (stereo not shown) [Compound 45, (E)-N-(5-(3-(1-((5-cyclopropyl-1H-pyrazol-3-yl)amino)-1-oxopropan-2-yl)phenyl)pyridin-2-yl)-4-(3-fluoropyrrolidin-1-yl)but-2-enamide]

From patent US11174232B2, “Substituted heterocyclyl derivatives as CDK inhibitors” (Aurigene Discovery Technologies Limited, priority 2015, dated 2021)
